Data set [1] deals with NSCLC. As to conditions: second-line treatment, PD-1 checkpoint blockade; cited from earlier work.
Data set [2] can be described thus: Intrinsic clearance in cryopreserved hepatocytes. Format: in vitro ADME. As for the experimental part: Accumulation of the majority of the radioactivity was found in the kidney and bladder irrespective of the labelled peptide dose; this is indicative of either non-saturable excretion or proteolysis followed by excretion through the kidneys. Furthermore, the intrinsic clearance of BT1718 and its Bicycle component, N241 was low when measured in cryopreserved hepatocytes. […] Unconjugated DM1, when radiolabelled, (as [[^3H]-DM1 (91 μCi/kg, 200 μg/kg, IV), was reported to distribute rapidly and extensively to the lungs, liver, kidney, spleen, heart, gastrointestinal tract, and adrenal glands in the rat. The major route of excretion of DM1 was through the bile/faeces, with a minimal amount excreted in the urine, a completely different distribution to BT1718 and its metabolites with little and short lived accumulation seen in other organs such as heart, liver, GI and lungs which would imply that these organs maybe spared systemic toxicity.

Data set [3] has as its system MMP1, MMP2 and MMP9. Nature of the data set: Effect on related MMP catalytic activity. Format: biochemical. As for the experimental part: (§1) Bicycle drug conjugates (BDCs) with a variety of linkers and cytotoxic payloads were prepared which retained binding to MT1.
Data set [4] has as its target MT1-MMP (Homo sapiens, UniProt P50281). In words: Effect on catalytic (proteolytic) activity of MT1-MMP. The data set is classed as biochemical. As to conditions: in vitro. The method, then: as §1
(§2) BT1718 is a BDC that binds to MT1-MMP and upon cleavage of its disulphide linker, releases the cytotoxic tubulin inhibitor, DM1 (also referred to as DM1-SH).

Data set [5] relates to catalytic domain of MT1-MMP. In words: Binding to catalytic domain of MT1-MMP. As for the experimental part:
as §1, §2

Data set [6] has as its system cell migration or invasion. Nature of the data set: Cell migration or invasion. Format: cell-based. As for the experimental part:
as §1

For data set [7], the system named is MMP15, MMP16, MMP24, MMP1, Pro-MMP1, MMP2. Nature of the data set: Binding to related MMP family members. The method, then:
as §1, §2

For data set [8] the following is noted: in vitro immunogenicity tests, n=50.
Source text: These include in vitro tissue microarray in human, rat and monkey tissues and in vitro and in vivo assessment of immunogenicity. In vivo assessments include single dose toxicity in mice and rats, multiple dose range finding studies in mice, rats, dogs and monkeys (non-GLP) and GLP-compliant multiple dose studies in rats and monkeys consisting of 28-day on study phase with a 28-day recovery period.
Data set [9] deals with MT1 MMP-expressing NSCLC PDX models. Nature of the data set: MT1-MMP-expressing NSCLC PDX models, docetaxel-sensitive and -resistant. Format: in vivo. As to conditions: 60 mg/m^2 once weekly. An excerpt:
Furthermore, BT1718 produced an anti-tumor effect against MT1 MMP-expressing NSCLC PDX models irrespective of their sensitivity to the SOC chemotherapeutic docetaxel. […] The PDX models confirm that MT1-MMP expression is necessary for BT1718 anti-tumor activity.

Data set [10] concerns NMB selected tumors. The note with it: cited from earlier work.
For data set [11] the following is noted: human; previously reported; cited from earlier work.
For data set [12] the following is noted: rat; previously reported; cited from earlier work.
For data set [13] the following is noted: [^3H]-DM1 200 μg/kg IV, rat; cited from earlier work.
For data set [14] the following is noted: monkey; previously reported; cited from earlier work.
The subject of data set [15] is HER2 positive breast cancer. As to conditions: third-line, HER2 positive population; cited from earlier work.

Read-outs that look alike come from different tables or passages of the source. Numbered stars: 1 amine (or outer) side, 2 acyl side, 3 side chain; on linkers, the order of the positions; unused ones are H or OH. Bridge positions count the residues as written; N and C are the ends. Square brackets hold non-standard residues; d marks the D form. Peptide text beside a SMILES is read from it. 1Nal = N[C@@H](Cc1cccc2ccccc12)C(=O)O; TBMB = c1c(C[*:1])cc(C[*:3])cc1C[*:2]; Tle = CC(C)(C)[C@H](N)C(=O)O; βAla = NCCC(=O)O; Sar = CNCC(=O)O

The values below come from patent US20200129630A1, “METHODS FOR TREATING CANCER” (BicycleRD Limited, priority 2018, published 2020).

Turning to “nivolumab: PD-1 checkpoint blockade agent”, the ORR entry in data set [1] is “around 20%”.

`C[C@H](NC(=O)CN(C)C(=O)CN(C)C(=O)CN(C)C(=O)CN(C)C(=O)CN(C)C(=O)CN(C)C(=O)CN(C)C(=O)CN(C)C(=O)CN(C)C(=O)CN(C)C(=O)CCN)C(=O)N[C@H]1CSCc2cc3cc(c2)CSC[C@H](NC(=O)[C@@H](C)NC(=O)[C@H](Cc2cccc4ccccc24)NC(=O)[C@H](CCC(=O)O)NC(=O)[C@H](CC(N)=O)NC(=O)[C@@H](C)NC1=O)C(=O)N[C@@H](CCC(=O)O)C(=O)N[C@@H](CC(=O)O)C(=O)N[C@@H](Cc1ccccc1)C(=O)N[C@@H](Cc1ccc(O)cc1)C(=O)N[C@@H](CC(=O)O)C(=O)N[C@@H](C(C)(C)C)C(=O)N[C@H](C(N)=O)CSC3` [N241] (H-[βAla][Sar][Sar][Sar][Sar][Sar][Sar][Sar][Sar][Sar][Sar]AC[dA]NE[1Nal][dA]CEDFYD[Tle]C-NH2; linker 13-19-26 via TBMB; N-terminus and C-terminus assumed): the intrinsic clearance result in [2] is reported as “low”. Moreover, the “impact on related MMP catalytic activity” value in [3] is recorded as “no direct impact”. Moreover, the “impact on the catalytic activity of the protease” value in [4] is reported as “no direct impact”. In data set [5], the “binding to the catalytic domain” value is given as “no binding” and the “selectivity over catalytic domain of MT1-MMP” value is on record as “at least 50 fold”. The “impact on cell migration or invasion” value in data set [6] is “no direct impact”. In addition, the “selectivity over other related-MMP hemopexin domains” value in data set [7] is “over 200 fold”. Further, in data set [7] (MMP15, MMP16, MMP24, MMP1, Pro-MMP1, MMP2), the “binding toward closely related MMP family members” value is listed as “no binding”. Also, the “positive responses in donor cohort” value in data set [8] was 2%.

In the case of “pembrolizumab: PD-1 checkpoint blockade agent”, the ORR entry in data set [1] was “around 20%”.

Turning to `CC(=O)O[C@@]12CO[C@@H]1C[C@H](O)[C@@]1(C)C(=O)[C@H](O)C3=C(C)[C@@H](OC(=O)[C@H](O)[C@@H](NC(=O)OC(C)(C)C)c4ccccc4)C[C@@](O)([C@@H](OC(=O)c4ccccc4)[C@H]21)C3(C)C` [docetaxel], in [9], the anti-tumor effect result is recorded as “regression only in the docetaxel-sensitive model”.

In the case of “CDX-011: Antibody-Drug Conjugate (ADC) against glycoprotein NMB”, the ORR in data set [10] was 30%.

On to `COc1cc2cc(c1Cl)N(C)C(=O)C[C@H](OC(=O)[C@H](C)N(C)C(=O)CCS)[C@]1(C)O[C@H]1[C@H](C)[C@@H]1C[C@@](O)(NC(=O)O1)[C@H](OC)/C=C/C=C(\C)C2` [DM1], for which the figures for the unbound fraction in data set [11], in data set [12] and in [14] were 7%, 3% and 7%, respectively. For the same molecule, the “major route of excretion” value in data set [13] is given as “bile/faeces”.

Turning to T-DM1, the ORR in data set [15] is listed as 31%.

As to “atezolizumab: PD-1 checkpoint blockade agent”, the ORR result in data set [1] is given as “around 20%”.
